{
  "source": "patent US20240207269A1",
  "about": "“USES OF HETEROCYCLIC INHIBITORS OF ERK1/2” (Erasca, Inc., priority 2021, published 2024)",
  "assay": "First-in-Human (FIH) Phase 1 study comparing QW and QD regimens",
  "format": "in vivo",
  "conditions": "QW preferred to QD",
  "description": "Both QW and QD regimens were evaluated in the First-in-Human (FIH) Phase 1 study. […] The observed data in indicate that having an uninterrupted coverage over IC90 for 1-2 days can improve cancer cell killing and maintaining Ctrough below IC50 can help normal cell recovery and can improve tolerability.",
  "data": [
    {"smiles": "Cc1cnc(NC2CCOCC2)nc1-n1cnc(C(=O)N[C@H](CN)c2cc(F)cc(Cl)c2)c1", "note": "[Compound 1, (S)—N-(2-amino-1-(3-chloro-5-fluorophenyl)ethyl)-1-(5-methyl-2-((tetrahydro-2H-pyran-4-yl)amino)pyrimidin-4-yl)-1H-imidazole-4-carboxamide]", "values": [
      {"measurement": "Efficacy, QW regimen compared to QD regimen", "value": "better efficacy"},
      {"measurement": "Skin toxicities, QW regimen compared to QD regimen", "value": "less frequent skin toxicities"}
    ]}
  ]
}
